System: reconstructed pigmented Episkin model
Assay: Depigmenting effect by topical application on the reconstructed pigmented Episkin model; melanin quantified by image analysis of Fontana-Masson stained sections
Format: cell-based
Conditions: DMSO control 569.02
Method: The results of the evaluation are compared to those of the solvent (DMSO) control and of a reference whitening active agent (Lucinol).
The histological quality of the epidermis after treatment was evaluated on the HES-stained histological section in order to determine the effect of the treatment on the epidermis.
The melanocyte physiology was also evaluated in order to detect melanocyte cytotoxicity.
The melanin present in the PRE is stained on the histological slide (Fontana-Masson staining) and then quantified by image analysis.
Each epidermis slide is digitized using Nanozoomer®.
For each epidermis, about 10˜15 images are extracted (white light, magnification ×20).
The area occupied by melanin is quantified using the Histolab® software.
Two parameters, namely graphic comparison (box-plot) and p value significance (Mann-Whitney U test), were applied to the interpretation of the statistical results.
Up to 6 repetitions were calculated for each treatment group.
The statistical significance between the test groups and the corresponding solvent controls was determined using the non-parametric Mann-Whitney U test (n=6).
The statistical significance is defined if the p value is less than 0.05. […]
The area occupied by melanin is quantified using the Histolab® software and is represented by the mean pixel number per image. […]

CCCCc1ccc(O)cc1O [Lucinol]
Mean pixel number/image (area occupied by melanin) (300 μM): 394.69
Mean pixel number/image (area occupied by melanin) (500 μM): 467.76

— US12653772B2, “Use of a rosebush extract as depigmenting active agent” (L'OREAL, priority 2020, dated 2026)
